Consider two molecules from patent US10087242B2 (INSTITUT PASTEUR, priority 2007, dated 2018).

As usually defined, the IC50 is the concentration that gives 50% inhibition. Lower therefore signals greater potency in that assay.

Format in all cases: binding, mouse
In one assay the test system is mIgG C7-37. Description: inhibition ELISA: oligosaccharide inhibits fixation of mIgG C7-37 on LPS 3a. The conditions noted are these: concentration of oligosaccharide giving 50% inhibition of fixation of the mAb on LPS 3a (S. flexneri 3a). The protocol:
(§1) The oligosaccharide determinants recognized by the four mAbs obtained were characterized by measuring, by inhibition ELISA, the interaction of the various oligosaccharides synthesized with these mAbs.
(§2) 1) First, a standard curve OD=f(concentration of the mAb) was established for each antibody.
(§3) For this, purified LPS from S. flexneri 3a was fixed in the wells of ELISA plates (96-well plate), at a concentration of 25 μg/ml in a carbonate buffer pH 9.6, at 4° C., overnight.
(§4) After washing the wells with a solution of PBS/ Tween 20 (0.05%) 1% and a stage of saturation with PBS/BSA 1% for 30 minutes at 4° C., various concentrations of each mAb were incubated for 30 minutes at 4° C. After a washing stage, a secondary antibody coupled to alkaline phosphatase and specific to the mouse IgGs or IgMs was added at a dilution of 1/5000 (Sigma-Aldrich) for 1 h at 37° C. After washing, the enzymatic reaction was carried out with the specific substrate of alkaline phosphatase (12 mg of p-nitrophenylphosphate in 1.2 ml of Tris-HCl buffer 1M (pH 8.8) and 10.8 ml of 5M NaCl). Once the color reaction had developed, the plates were read at 405 nm (Dynatech MR 4000 plate reader). The standard curve OD =f(Ab concentration) was refined with the equation Y=aX2+bX+c, where Y corresponds to the OD and X to the antibody concentration. A correlation factor (r2) of 0.99 was generally obtained.
(§5) 2) The concentration of oligosaccharide capable of inhibiting 50% of the fixation of the mAb on LPS 3a was then determined as follows.
(§6) Each mAb was used at a given concentration, defined as the first concentration tested giving a maximum OD on the standard curve (the first point at the start of the plateau of the curve). Various concentrations of each of the oligosaccharides to be tested were then incubated separately with the mAb at constant concentration, overnight at 4° C., in 1% PBS-BSA buffer. Measurement of the free antibody concentration was carried out as stated above, after incubation of the mAb/oligosaccharide mixtures at 4° C. for 30 minutes on plates covered with LPS 3a and using the standard curve obtained in parallel on the same plate. For each mAb and each oligosaccharide, a value called IC50 was then calculated, corresponding to the concentration of oligosaccharide permitting 50% inhibition of the fixation of the mAb on LPS 3a.
For orientation: In an ELISA, binding on a coated surface is turned into a signal by an enzyme label.

A further assay concerns mIgG G7-12. In words: inhibition ELISA: oligosaccharide inhibits fixation of mIgG G7-12 on LPS 3a. The conditions noted are these: concentration of oligosaccharide giving 50% inhibition of fixation of the mAb on LPS 3a (S. flexneri 3a). The protocol:
as §1, §2, §3, §4, §5, §6

A further assay relates to IgM (G 19-2). Description: inhibition ELISA: oligosaccharide inhibits fixation of IgM G19-2 on LPS 3a. The conditions noted are these: concentration of oligosaccharide giving 50% inhibition of fixation of the mAb on LPS 3a (S. flexneri 3a), inhibition ELISA. The protocol: Protocol 2) Ten Balb/C mice and four BP2 mice were immunized by i.p. injection with virulent live bacteria of the strain S. flexneri 3a, every three weeks, using 2×10^6 bacteria for the first 2 immunizations and 5×10^6 for the next 4. As the anti-LPS 3a antibody response was too weak for performing cellular fusion, an additional series of 4 injections was carried out. Two mAbs of type IgM, G19-2 and L18-9, were obtained.
as §1, §2, §3, §4, §5, §6

As to `CCCO[C@@H]1O[C@H](CO)[C@@H](O)[C@H](O[C@@H]2O[C@@H](C)[C@H](O)[C@@H](O[C@@H]3O[C@@H](C)[C@H](O)[C@@H](O)[C@H]3O[C@@H]3O[C@@H](C)[C@H](O)[C@@H](O[C@H]4O[C@H](CO)[C@@H](O)[C@H](O)[C@H]4O)[C@H]3O)[C@H]2O)[C@H]1NC(C)=O` [EABCD-OPr, Propyl α-D-glucopyranosyl-(1→3)-α-L-rhamnopyranosyl-(1→2)-α-L-rhamnopyranosyl-(1→3)-α-L-rhamnopyranosyl-(1→3)-2-acetamido-2-deoxy-β-D-glucopyranoside], the IC50 is > 1000 µM in the assay with mIgG C7-37, > 2500 µM in the assay with mIgG G7-12 and > 2500 µM with IgM (G 19-2).

Take “Propyl (2/3-O-acetyl-α-L-rhamnopyranosyl)-(1→3)-(2-acetamido-2-deoxy-β-D-glucopyranosyl)-(1→2)-(α-D-glucopyranosyl-(1→3)-α-L-rhamnopyranoside [C(2-OAc)DEA-OPr]”: the IC50 in the assay with mIgG C7-37 is > 5000 µM; in the assay on mIgG G7-12, > 2500 µM; in the assay with IgM (G 19-2) it was > 2500 µM.
